One test addresses Procathepsin L (Homo sapiens, UniProt P07711). Briefly: Inhibition of cathepsin L.
Another test addresses Cathepsin B (Homo sapiens, UniProt P07858). The test is described as follows: Inhibition of cathepsin B.
Test [1] concerns the target T1, Prostaglandin G/H synthase 2 (Homo sapiens, UniProt P35354).
T1 sequence (P35354 whole entry): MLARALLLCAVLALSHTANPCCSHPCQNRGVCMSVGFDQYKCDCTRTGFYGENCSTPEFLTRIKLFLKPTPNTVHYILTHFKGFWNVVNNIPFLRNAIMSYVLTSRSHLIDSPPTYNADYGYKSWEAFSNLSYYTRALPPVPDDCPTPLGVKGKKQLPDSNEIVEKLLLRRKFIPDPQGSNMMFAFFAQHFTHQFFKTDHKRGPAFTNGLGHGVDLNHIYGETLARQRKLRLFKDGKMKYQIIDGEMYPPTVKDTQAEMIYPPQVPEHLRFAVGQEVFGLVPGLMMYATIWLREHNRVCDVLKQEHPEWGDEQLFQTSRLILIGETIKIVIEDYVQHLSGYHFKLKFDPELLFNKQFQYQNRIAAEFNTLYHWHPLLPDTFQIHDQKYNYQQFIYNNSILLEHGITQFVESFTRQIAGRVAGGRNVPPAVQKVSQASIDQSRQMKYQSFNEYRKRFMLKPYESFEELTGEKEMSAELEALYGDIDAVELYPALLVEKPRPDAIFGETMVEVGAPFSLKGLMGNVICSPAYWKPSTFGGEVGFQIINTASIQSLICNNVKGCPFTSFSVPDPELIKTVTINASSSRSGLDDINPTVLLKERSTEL
Briefly: Inhibition of COX2.

Test [2] addresses Prostaglandin G/H synthase 1 (Homo sapiens, UniProt P23219). Briefly: Inhibition of COX1.

A value given as a limit tells only on which side of the number the result lay.

Procathepsin L, sequence (P07711 whole entry): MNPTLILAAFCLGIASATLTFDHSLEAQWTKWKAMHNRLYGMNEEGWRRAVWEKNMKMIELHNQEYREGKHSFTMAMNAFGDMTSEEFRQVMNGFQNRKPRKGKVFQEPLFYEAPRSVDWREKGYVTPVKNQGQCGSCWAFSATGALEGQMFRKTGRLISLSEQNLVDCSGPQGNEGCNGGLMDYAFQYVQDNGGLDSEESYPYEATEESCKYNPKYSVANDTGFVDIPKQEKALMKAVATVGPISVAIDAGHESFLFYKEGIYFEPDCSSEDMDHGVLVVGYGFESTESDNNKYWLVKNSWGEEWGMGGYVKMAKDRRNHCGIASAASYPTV
Prostaglandin G/H synthase 1, sequence (P23219 whole entry): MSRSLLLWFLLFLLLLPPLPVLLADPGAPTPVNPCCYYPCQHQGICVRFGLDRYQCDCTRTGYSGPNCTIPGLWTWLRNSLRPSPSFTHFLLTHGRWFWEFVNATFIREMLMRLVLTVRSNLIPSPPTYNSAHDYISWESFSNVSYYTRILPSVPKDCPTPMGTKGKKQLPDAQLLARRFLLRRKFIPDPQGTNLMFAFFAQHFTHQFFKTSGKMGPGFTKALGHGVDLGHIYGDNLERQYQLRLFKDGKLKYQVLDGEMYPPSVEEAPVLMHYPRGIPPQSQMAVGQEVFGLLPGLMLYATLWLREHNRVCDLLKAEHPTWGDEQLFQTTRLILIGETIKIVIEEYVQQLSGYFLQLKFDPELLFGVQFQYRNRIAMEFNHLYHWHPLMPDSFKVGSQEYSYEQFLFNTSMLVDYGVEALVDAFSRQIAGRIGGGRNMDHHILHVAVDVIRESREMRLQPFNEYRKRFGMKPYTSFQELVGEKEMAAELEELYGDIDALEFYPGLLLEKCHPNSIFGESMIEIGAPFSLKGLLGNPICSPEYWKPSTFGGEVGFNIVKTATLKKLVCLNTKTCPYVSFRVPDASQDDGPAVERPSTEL

In the case of `N#CCNC(=O)C1CCCCC1CSc1cccc(Cl)c1` (stereo unspecified), the concentration for half-maximal inhibition (IC50) turned out to be 3.6 µM against Procathepsin L and 102 µM at Cathepsin B.

For `N#CCNC(=O)C1CCCCC1CSc1ccccc1` (stereo unspecified), the results for the IC50 at Procathepsin L and against Cathepsin B were 26 µM and 5.3 µM, respectively.

As for `Cc1ccc(Nc2c(F)cccc2Cl)c(CC(=O)O)c1` [LUMIRACOXIB], the IC50 in test [1] is more than 10 µM; in test [2], 0.007 µM.

The values above are taken from ChEMBL document CHEMBL2034973, “Exploring activity cliffs in medicinal chemistry” (J Med Chem, 2012).
